Assay results reported in US20260048051A1, “TREATMENT OF INFLAMMATORY BOWEL DISEASE” (Atomwise Inc., priority 2024, published 2026).

Key:
[1] = Brain exposure pharmacokinetics in rats; type: in vivo; settings: male Sprague Dawley rats, oral gavage 10 mg/kg
Protocol: The brain exposure of exemplary compounds, e.g., 1, 2, and 4 were evaluated in male Sprague Dawley rats after oral gavage administration at 10 mg/kg. The formulation was 5% DMSO+10% PEG400 in saline. Rats were fasted overnight with food returned 4 hours post-dose. CSF was collected by direct needle puncture into the cisterna magna.
(§1) For both rat and mouse studies, brain tissue was washed with 3 volumes of saline prior to homogenization. Brain tissue was homogenized with 3 volumes (v/w) of phosphate buffered saline. Plasma, brain homogenate, and CSF samples (rat only) were analyzed by LC-MS/MS and the concentration of test compound at each time point was determined by linear regression.
(§2) Pharmacokinetic parameters were calculated from the plasma, brain, and CSF concentrations by non-compartmental modeling using WinNonlin 8.2.

TYK2-JH2 = biological target: T1, TYK2-JH2 (Homo sapiens, UniProt P29597); test: TYK2-JH2 HTRF binding assay (ligand efficiency); settings: calculated from binding-assay IC50 (Equation 1)
T1 construct: TYK JH2 enzyme mix (ChemPartner: CP20210818A-BV); purchased ChemPartner CP20210818A-BV
Method in brief: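 HTRF competition binding: 0.5 nM His-tagged TYK2 JH2 preincubated 10 min at room temperature with compound (final 0.1 to 0.000005 μM), then 35 nM tracer and anti-6HIS Tb cryptate added for 60 min. Buffer 20 mM HEPES pH 7.5, 10 mM MgCl2, 0.01% Triton X-100, 1 mM DTT; TR-FRET Ex340/Em495/520. Ligand efficiency derived from binding IC50.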

[2] = Brain exposure pharmacokinetics in mice; type: in vivo; settings: male C57BL/6 mice, oral gavage 5 mg/kg
Protocol: The brain exposure of 18 was evaluated in male C57BL/6 mice after oral gavage administration at 5 mg/kg. The formulation was 10% DMSO+40% PEG400 in saline. Mice were provided free access to food and water without fasting. Terminal sample collection of plasma and brain tissue were collected at […], 0.25, 0.5, 1, 2, and 4 hours post-dose with n=3 at each timepoint.
as §1, §2

T1 sequence (P29597 589-875 limits assumed): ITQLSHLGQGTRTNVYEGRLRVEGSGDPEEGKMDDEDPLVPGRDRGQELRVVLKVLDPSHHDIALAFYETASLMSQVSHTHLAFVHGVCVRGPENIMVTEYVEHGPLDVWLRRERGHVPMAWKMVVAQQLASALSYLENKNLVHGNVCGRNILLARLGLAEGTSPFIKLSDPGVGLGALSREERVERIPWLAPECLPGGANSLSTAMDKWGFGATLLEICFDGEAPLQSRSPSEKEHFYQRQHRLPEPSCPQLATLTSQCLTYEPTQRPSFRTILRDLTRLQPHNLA

SMILES | Brain Kpu, u [1] | Ligand Efficiency (TYK2-JH2) | Brain Kpu, u [2]
C[C@@H](c1ccc(Nc2cc(Nc3ncccc3S(C)(=O)=O)ncn2)nc1)N(C)C [Compound 4, (S)—N^4-(5-(1-(dimethylamino)ethyl)pyridin-2-yl)-N^6-(3-(methylsulfonyl)pyridin-2-yl) pyrimidine-4,6-diamine] | ††† (††† >0.2 u) | ††† (†††: >0.39) | 
Cc1cccc(Nc2cc(Nc3ncccc3S(C)(=O)=O)ncn2)n1 [Compound 18, N^4-(6-methylpyridin-2-yl)-N^6-(3-(methylsulfonyl)pyridin-2-yl) pyrimidine-4,6-diamine] |  | ††† (†††: >0.39) | ††† (††† >0.2 u)
